Data as given in US9120812B2, “Pyrimidooxazocine derivatives as mTOR-inhibitors” (SANOFI, priority 2012, dated 2015).

Columns and labels:
PI3Kα (p110α/p85α) = PI3Kα (p110α/p85α) (Homo sapiens (Human), UniProt P42336); test: PI3Kα enzymatic test by measuring the consumption of ATP; assay type: biochemical
Experimental: Model 2: PI3Kα Enzymatic Test by Measuring the Consumption of ATP.
The test uses a lucifeurerin/luciferase system to measure the concentration of ATP and its consumption during the enzymatic reaction. The test is performed in 96-well format (Corning/Costar 96 black flat-bottomed half-wells plate, ref. 3694) in a total volume of 30 μl.
To 1 μl of inhibitor in 100% DMSO are added (final concentrations) 50 μM of the substrate PIP2 ((L-α-phosphatidyl-D-myoinositol 4,5-bisphosphate, Echelon 117P-4516-0500), 2 μM of ATP and 1.7 μg/ml of PI3Kα, (p110α/p85α, Invitrogen PV4788) in a buffer of Tris/HCl 50 mM pH 7.5, EGTA 1 mM, MgCl2 10 mM, Chaps 0.03%, 1 mM DTT). After 90 minutes, the reaction is quenched by adding 20 μl/well of KinaseGlo reagent (Promega V6713). After 10 minutes in the dark, the luminescence is read on the PHERAStar microplate reader (reading at 0.8 sec/well).
The IC50 values are determined by the preparation of successive threefold dilutions on at least a scale of 10 000.

[1] = biological target: mTOR (human recombinant aa mTOR 1360-2549) (Homo sapiens (Human), UniProt P42345); test: mTOR enzymatic test by TR-FRET (phosphorylation of GFP-4EBP1); assay type: biochemical
Experimental: Model 1: mTOR Enzymatic Test by TR-FRET (Time-resolved Fluorescence Resonance Energy Transfer).
The test detects the phosphorylation of the substrate GFP-4EBP1 using a terbium-labelled antibody that is specific for the phospho-Thr46 epitope. Binding of the Tb-antibody to the phosphorylated GFP peptide allows the transfer of energy from Tb, excited at 340 nm, to GFP with an increase in the fluorescence emission of the GFP at 520 nm. […] The mixture is incubated for 30 minutes at room temperature. 10 μl of solution are taken up and the reaction is quenched by adding 10 μl of Tb-antibody solution (Invitrogen PV4757)/EDTA (2 nM Tb-Ac and 10 mM EDTA final). After 60 minutes at room temperature, the fluorescence at 490 nm, from the Tb emission, and at 520 nm, from the GFP emission, is measured in a BMG PHERAstar reader equipped with a Lanthascreen™ filter (excitation at 340 nm, emission at 490 and 520 nm). The results are given in the form of the 520/490 ratio.

U87MG tumour cells = test: Test of in vitro proliferation of U87MG tumour cells; assay type: cell-based; conditions: Homo sapiens, U-87 MG, 72 h, U87MG cells, 72 hours; read-out: U87 Cell Proliferation IC50
Experimental: Model 4: Test of in vitro Proliferation of U87MG Tumour Cells.
The cell growth is determined with the reagent CellTiter 96 AQueous One Solution Cell Proliferation Assay from Promega (Cat. No. G3581).

Akt-pS473 in U87MG cells = conditions: Homo sapiens, U-87 MG; for IC50: read-out: U87 Akt-pS473 % Inhibition or IC50, nM (IC50), U87MG cells

mTOR (human recombinant aa mTOR 1360-2549), sequence (P42345 1360-2549): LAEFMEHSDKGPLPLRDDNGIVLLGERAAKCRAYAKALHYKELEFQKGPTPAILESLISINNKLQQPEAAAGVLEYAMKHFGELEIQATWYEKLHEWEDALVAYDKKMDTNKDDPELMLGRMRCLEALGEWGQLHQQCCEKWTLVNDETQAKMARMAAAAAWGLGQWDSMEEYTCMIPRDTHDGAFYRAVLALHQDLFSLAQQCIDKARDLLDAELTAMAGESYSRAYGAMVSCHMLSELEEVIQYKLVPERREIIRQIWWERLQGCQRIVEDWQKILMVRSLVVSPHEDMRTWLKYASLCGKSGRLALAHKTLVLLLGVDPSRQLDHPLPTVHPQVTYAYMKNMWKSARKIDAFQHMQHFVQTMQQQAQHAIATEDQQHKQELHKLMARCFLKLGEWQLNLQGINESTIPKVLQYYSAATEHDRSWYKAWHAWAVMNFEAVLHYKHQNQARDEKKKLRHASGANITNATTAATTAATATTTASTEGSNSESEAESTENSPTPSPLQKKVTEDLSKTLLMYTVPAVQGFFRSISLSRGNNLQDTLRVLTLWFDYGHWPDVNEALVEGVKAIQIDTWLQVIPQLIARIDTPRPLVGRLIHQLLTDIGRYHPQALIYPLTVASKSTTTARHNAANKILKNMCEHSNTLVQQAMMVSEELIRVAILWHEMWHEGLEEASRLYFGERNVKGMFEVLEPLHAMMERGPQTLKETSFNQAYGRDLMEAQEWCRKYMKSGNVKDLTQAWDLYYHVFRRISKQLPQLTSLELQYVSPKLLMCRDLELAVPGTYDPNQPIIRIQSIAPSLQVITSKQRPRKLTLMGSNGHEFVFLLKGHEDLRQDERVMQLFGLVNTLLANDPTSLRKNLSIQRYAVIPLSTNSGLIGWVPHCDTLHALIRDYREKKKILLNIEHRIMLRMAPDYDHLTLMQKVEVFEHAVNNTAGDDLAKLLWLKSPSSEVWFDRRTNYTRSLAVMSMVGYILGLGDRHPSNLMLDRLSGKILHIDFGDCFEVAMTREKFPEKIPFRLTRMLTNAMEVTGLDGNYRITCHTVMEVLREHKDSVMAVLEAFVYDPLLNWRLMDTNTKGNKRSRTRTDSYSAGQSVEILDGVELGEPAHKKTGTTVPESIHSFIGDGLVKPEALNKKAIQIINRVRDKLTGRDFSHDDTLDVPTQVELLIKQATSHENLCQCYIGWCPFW
PI3Kα (p110α/p85α), sequence (P42336 whole entry): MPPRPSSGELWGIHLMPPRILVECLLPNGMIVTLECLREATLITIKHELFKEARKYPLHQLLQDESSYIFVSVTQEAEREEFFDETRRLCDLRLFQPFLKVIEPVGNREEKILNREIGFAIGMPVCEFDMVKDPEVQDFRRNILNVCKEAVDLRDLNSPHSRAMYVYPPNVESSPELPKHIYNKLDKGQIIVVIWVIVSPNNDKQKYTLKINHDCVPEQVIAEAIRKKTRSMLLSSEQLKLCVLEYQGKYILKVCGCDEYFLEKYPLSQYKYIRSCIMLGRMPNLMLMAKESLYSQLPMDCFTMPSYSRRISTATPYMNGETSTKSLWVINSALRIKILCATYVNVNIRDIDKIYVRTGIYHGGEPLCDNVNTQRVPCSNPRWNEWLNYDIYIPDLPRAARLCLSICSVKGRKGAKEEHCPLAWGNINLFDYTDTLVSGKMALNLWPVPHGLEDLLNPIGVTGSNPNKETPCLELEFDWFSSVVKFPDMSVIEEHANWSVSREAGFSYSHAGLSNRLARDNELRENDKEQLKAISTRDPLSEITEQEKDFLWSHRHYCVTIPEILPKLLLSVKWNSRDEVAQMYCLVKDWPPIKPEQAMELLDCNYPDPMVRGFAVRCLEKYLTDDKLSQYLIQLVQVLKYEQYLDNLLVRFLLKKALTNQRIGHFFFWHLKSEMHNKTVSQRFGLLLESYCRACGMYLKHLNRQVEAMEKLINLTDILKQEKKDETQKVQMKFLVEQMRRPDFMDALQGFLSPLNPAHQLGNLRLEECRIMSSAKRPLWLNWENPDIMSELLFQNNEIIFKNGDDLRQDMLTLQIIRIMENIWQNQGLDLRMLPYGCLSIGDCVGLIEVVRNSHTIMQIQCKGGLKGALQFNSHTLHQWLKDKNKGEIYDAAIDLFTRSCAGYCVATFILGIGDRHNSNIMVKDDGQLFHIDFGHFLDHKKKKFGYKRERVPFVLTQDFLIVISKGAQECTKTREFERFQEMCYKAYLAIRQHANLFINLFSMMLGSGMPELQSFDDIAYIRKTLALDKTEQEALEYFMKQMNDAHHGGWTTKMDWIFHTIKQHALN
PI3Kα (p110α/p85α), sequence (P27986 whole entry partner): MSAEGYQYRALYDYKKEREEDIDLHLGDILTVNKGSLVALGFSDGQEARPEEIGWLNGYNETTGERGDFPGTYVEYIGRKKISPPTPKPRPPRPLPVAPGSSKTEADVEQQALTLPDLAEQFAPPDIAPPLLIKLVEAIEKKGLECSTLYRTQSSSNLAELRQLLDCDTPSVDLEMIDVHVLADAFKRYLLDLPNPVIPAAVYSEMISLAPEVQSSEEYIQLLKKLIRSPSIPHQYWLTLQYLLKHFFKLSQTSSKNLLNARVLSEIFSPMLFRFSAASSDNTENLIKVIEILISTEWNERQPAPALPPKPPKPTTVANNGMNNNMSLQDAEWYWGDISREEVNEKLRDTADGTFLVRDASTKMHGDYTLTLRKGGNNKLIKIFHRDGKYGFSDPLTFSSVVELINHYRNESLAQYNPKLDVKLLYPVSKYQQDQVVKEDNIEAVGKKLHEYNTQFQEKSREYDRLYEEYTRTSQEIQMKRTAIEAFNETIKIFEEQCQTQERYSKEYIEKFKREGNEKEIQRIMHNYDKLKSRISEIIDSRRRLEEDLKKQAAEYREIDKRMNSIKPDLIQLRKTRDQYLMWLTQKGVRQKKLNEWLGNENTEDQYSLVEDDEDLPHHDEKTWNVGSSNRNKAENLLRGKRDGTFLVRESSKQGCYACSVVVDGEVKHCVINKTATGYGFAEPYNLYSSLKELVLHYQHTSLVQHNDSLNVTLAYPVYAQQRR

SMILES | PI3Ka IC50 (PI3Kα (p110α/p85α)) | IC50 [1] | IC50 (U87MG tumour cells) | IC50 (Akt-pS473 in U87MG cells) | inhibition at 3 µM (Akt-pS473 in U87MG cells; read-out: U87 Akt-pS473 % Inhibition)
Cc1ccc(NC(=O)Nc2ccc(-c3nc(N4CC5CCC(C4)O5)nc4c3C(=O)N(C)CC(C)(C)O4)cc2)nc1 [Example 42, 1-(5-Methylpyridin-2-yl)-3-{4-[6,8,8-trimethyl-2-(8-oxa-3-azabicyclo[3.2.1]oct-3-yl)-5-oxo-5,6,7,8-tetrahydro-9-oxa-1,3,6-triazabenzocyclohepten-4-yl]phenyl}urea] | >10000 nM | 43 nM | 350 nM | 52 nM | –
CCNC(=O)Nc1ccc(-c2nc(N3CC4CCC(C3)O4)nc3c2C(=O)N(CCOC)CC(C)(C)O3)cc1 [Example 217, 1-Ethyl-3-{4-[6-(2-methoxyethyl)-8,8-dimethyl-2-(8-oxa-3-azabicyclo[3.2.1]oct-3-yl)-5-oxo-5,6,7,8-tetrahydro-9-oxa-1,3,6-triazabenzocyclohepten-4-yl]phenyl}urea] | >10000 nM | 59 nM | 1760 nM | – | 80%
CCN1CC(C)(C)Oc2nc(N3CC4CCC(C3)O4)nc(-c3ccc(NC(=O)Nc4ccncc4F)c(F)c3)c2C1=O [Example 76] | 2360 nM | 28 nM | 367 nM | 29 nM | –
CCN1CC(C)(C)Oc2nc(N3CC4CCC(C3)O4)nc(-c3ccc(NC(=O)Nc4cnc(N5CCOCC5)cn4)c(F)c3)c2C1=O [Example 233, 1-{4-[6-Ethyl-8,8-dimethyl-2-(8-oxa-3-azabicyclo[3.2.1]oct-3-yl)-5-oxo-5,6,7,8-tetrahydro-9-oxa-1,3,6-triazabenzocyclohepten-4-yl]-2-fluorophenyl}-3-(5-morpholin-4-ylpyrazin-2-yl)urea] | >10000 nM | 68 nM | 908 nM | 87 nM | –
C[C@@H]1COCCN1c1ccc(NC(=O)Nc2ccc(-c3nc(N4CC5CCC(C4)O5)nc4c3C(=O)N(C)CC(C)(C)O4)cc2F)cn1 [Example 87, 1-{2-Fluoro-4-[6,8,8-trimethyl-2-(8-oxa-3-azabicyclo[3.2.1]oct-3-yl)-5-oxo-5,6,7,8-tetrahydro-9-oxa-1,3,6-triazabenzocyclohepten-4-yl]phenyl}-3-[6-((R)-3-methylmorpholin-4-yl)pyridin-3-yl]urea] | >10000 nM | 57 nM | 59 nM | 20 nM | –
CN1CC(C)(C)Oc2nc(N3CC4CCC(C3)O4)nc(-c3ccc(NC(=O)Nc4ccncc4)cc3)c2C1=O [Example 69, 1-Pyridin-4-yl-3-{4-[6,8,8-trimethyl-2-(8-oxa-3-azabicyclo[3.2.1]oct-3-yl)-5-oxo-5,6,7,8-tetrahydro-9-oxa-1,3,6-triazabenzocyclohepten-4-yl]phenyl}urea] | 472 nM | 6 nM | 79 nM | 35 nM | –
CCN1CC(C)(C)Oc2nc(N3CCOC[C@@H]3C)nc(-c3ccc(NC(=O)Nc4ccccc4F)cc3)c2C1=O [Example 202, 1-{4-[6-Ethyl-8,8-dimethyl-2-((S)-3-methylmorpholin-4-yl)-5-oxo-5,6,7,8-tetrahydro-9-oxa-1,3,6-triazabenzocyclohepten-4-yl]phenyl}-3-(2-fluorophenyl)urea] | 213 nM | 19 nM | 73 nM | 5 nM | –
CCN1CC(C)(C)Oc2nc(N3CC4CCC(C3)O4)nc(-c3ccc(NC(=O)Nc4ccc(N5CCCC5)cn4)cc3)c2C1=O [Example 25, 1-{4-[6-ethyl-8,8-dimethyl-2-(8-oxa-3-azabicyclo[3.2.1]oct-3-yl)-5-oxo-5,6,7,8-tetrahydro-9-oxa-1,3,6-triazabenzocyclohepten-4-yl]phenyl}-3-(5-pyrrolidin-1-ylpyridin-2-yl)urea] | >10000 nM | 130 nM | 196 nM | 124 nM | –
COc1ccc(NC(=O)Nc2ccc(-c3nc(N4CC5CCC(C4)O5)nc4c3C(=O)N(C3CCOCC3)CC(C)(C)O4)cc2)cn1 [Example 148, 1-{4-[8,8-Dimethyl-2-(8-oxa-3-azabicyclo[3.2.1]oct-3-yl)-5-oxo-6-(tetrahydropyran-4-yl)-5,6,7,8-tetrahydro-9-oxa-1,3,6-triazabenzocyclohepten-4-yl]phenyl}-3-(6-methoxypyridin-3-yl)urea] | >10000 nM | 68 nM | 490 nM | 21 nM | –
CC[C@H]1COCCN1c1ccc(NC(=O)Nc2ccc(-c3nc(N4CCOC[C@@H]4C)nc4c3C(=O)N(CC)CC(C)(C)O4)cc2F)cn1 [Example 248, 1-{4-[6-Ethyl-8,8-dimethyl-2-((S)-3-methylmorpholin-4-yl)-5-oxo-5,6,7,8-tetrahydro-9-oxa-1,3,6-triazabenzocyclohepten-4-yl]-2-fluorophenyl}-3-[6-((S)-3-ethylmorpholin-4-yl)pyridin-3-yl]urea] | >10000 nM | 68 nM | 96 nM | 29 nM | –
CCN1CC(C)(C)Oc2nc(N3CC4CCC(C3)O4)nc(-c3ccc(NC(=O)Nc4ccc(N5CCCC5)nc4)c(F)c3)c2C1=O [Example 32, 1-{4-[6-Ethyl-8,8-dimethyl-2-(8-oxa-3-azabicyclo[3.2.1]oct-3-yl)-5-oxo-5,6,7,8-tetrahydro-9-oxa-1,3,6-triazabenzocyclohepten-4-yl]-2-fluorophenyl}-3-(6-pyrrolidin-1-ylpyridin-3-yl)urea] | >10000 nM | 84 nM | 115 nM | 21 nM | –
CCN1CC(C)(C)Oc2nc(N3CC4CCC(C3)O4)nc(-c3ccc(NC(=O)Nc4ccc(F)cc4F)cc3)c2C1=O [Example 19, 1-(2,4-difluorophenyl)-3-{4-[6-ethyl-8,8-dimethyl-2-(8-oxa-3-azabicyclo[3.2.1]oct-3-yl)-5-oxo-5,6,7,8-tetrahydro-9-oxa-1,3,6-triazabenzocyclohepten-4-yl]phenyl}urea] | 6219 nM | 32 nM | 122 nM | 28 nM | –
CCN1CC(C)(C)Oc2nc(N3C4CCC3COC4)nc(-c3ccc(NC(=O)Nc4cccnc4)c(F)c3)c2C1=O [Example 50, 1-{4-[6-Ethyl-8,8-dimethyl-2-(3-oxa-8-azabicyclo[3.2.1]oct-8-yl)-5-oxo-5,6,7,8-tetrahydro-9-oxa-1,3,6-triazabenzocyclohepten-4-yl]-2-fluorophenyl}-3-pyridin-3-ylurea] | 2870 nM | 39 nM | 40 nM | 7 nM | –
CN1CC(C)(C)Oc2nc(N3CC4CCC(C3)O4)nc(-c3ccc(NC(=O)Nc4ccc(N5C6CCC5COC6)nc4)c(F)c3)c2C1=O [Example 245, 1-{2-Fluoro-4-[6,8,8-trimethyl-2-(8-oxa-3-azabicyclo[3.2.1]oct-3-yl)-5-oxo-5,6,7,8-tetrahydro-9-oxa-1,3,6-triazabenzocyclohepten-4-yl]phenyl}-3-[6-(3-oxa-8-azabicyclo[3.2.1]oct-8-yl)pyridin-3-yl]urea] | >10000 nM | 63 nM | – | 67 nM | –
CCNC(=O)Nc1ccc(-c2nc(N3CCOCC3)nc3c2C(=O)NCC(C)(C)O3)cc1 [Example 94, 1-[4-(8,8-Dimethyl-2-morpholin-4-yl-5-oxo-5,6,7,8-tetrahydro-9-oxa-1,3,6-triazabenzocyclohepten-4-yl)phenyl]-3-ethylurea] | 7320 nM | 112 nM | – | > 10000 nM | –
